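All cell lines were grown in 96-well plates and treated with compound for 48 hours. GI50 marks 50% less growth. At the TGI there is no net growth.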
What was measured:
Test in all cases: DTP human tumour cell line panel, 48 h
786-0 renal = tested on: 786-0 renal
A549 NSCLC = tested on: A549 NSCLC
ACHN renal = tested on: ACHN renal
BT-549 breast = tested on: BT-549 breast
CAKI-1 renal = tested on: CAKI-1 renal
CCRF-CEM leukemia = tested on: CCRF-CEM leukemia
COLO 205 colon = tested on: COLO 205 colon
DU-145 prostate = tested on: DU-145 prostate
EKVX NSCLC = tested on: EKVX NSCLC
HCC-2998 colon = tested on: HCC-2998 colon
HCT-116 colon = tested on: HCT-116 colon
HCT-15 colon = tested on: HCT-15 colon
HL-60(TB) leukemia = tested on: HL-60(TB) leukemia
HOP-62 NSCLC = tested on: HOP-62 NSCLC
HOP-92 NSCLC = tested on: HOP-92 NSCLC
HS 578T breast = tested on: HS 578T breast
HT29 colon = tested on: HT29 colon
IGROV1 ovarian = tested on: IGROV1 ovarian
K-562 leukemia = tested on: K-562 leukemia
KM12 colon = tested on: KM12 colon
LOX IMVI melanoma = tested on: LOX IMVI melanoma
M14 melanoma = tested on: M14 melanoma
MALME-3M melanoma = tested on: MALME-3M melanoma
MCF7 breast = tested on: MCF7 breast
MDA-MB-231 breast = tested on: MDA-MB-231 breast
MDA-MB-435 = tested on: MDA-MB-435
MOLT-4 leukemia = tested on: MOLT-4 leukemia
NCI-H226 lung = tested on: NCI-H226 lung
NCI-H23 lung = tested on: NCI-H23 lung
NCI-H460 lung = tested on: NCI-H460 lung
NCI-H522 lung = tested on: NCI-H522 lung
NCI/ADR-RES ovarian = tested on: NCI/ADR-RES ovarian
OVCAR-3 ovarian = tested on: OVCAR-3 ovarian
OVCAR-4 ovarian = tested on: OVCAR-4 ovarian
OVCAR-5 ovarian = tested on: OVCAR-5 ovarian
OVCAR-8 ovarian = tested on: OVCAR-8 ovarian
PC-3 prostate = tested on: PC-3 prostate
RPMI-8226 leukemia = tested on: RPMI-8226 leukemia
RXF 393 renal = tested on: RXF 393 renal
SF-268 CNS = tested on: SF-268 CNS
SF-295 CNS = tested on: SF-295 CNS
SF-539 CNS = tested on: SF-539 CNS
SK-MEL-2 melanoma = tested on: SK-MEL-2 melanoma
SK-MEL-28 melanoma = tested on: SK-MEL-28 melanoma
SK-MEL-5 melanoma = tested on: SK-MEL-5 melanoma
SK-OV-3 ovarian = tested on: SK-OV-3 ovarian
SN12C renal = tested on: SN12C renal
SNB-19 CNS = tested on: SNB-19 CNS
SR leukemia = tested on: SR leukemia
SW-620 colon = tested on: SW-620 colon
T-47D breast = tested on: T-47D breast
TK-10 renal = tested on: TK-10 renal
U251 CNS = tested on: U251 CNS
UACC-257 melanoma = tested on: UACC-257 melanoma
UACC-62 melanoma = tested on: UACC-62 melanoma
UO-31 renal = tested on: UO-31 renal

## Cc1cc(C(=O)/C=C/c2ccc[nH]2)ccc1-n1ccc(C(F)(F)F)n1
786-0 renal
  GI50: 3.54 µM
  TGI: > 100 µM
A549 NSCLC
  GI50: 6.82 µM
  TGI: > 100 µM
ACHN renal
  GI50: 21.3 µM
  TGI: > 100 µM
BT-549 breast
  GI50: 1.36 µM
  TGI: 3.12 µM
CAKI-1 renal
  GI50: 3.04 µM
  TGI: 28.7 µM
CCRF-CEM leukemia
  GI50: 2.55 µM
  TGI: > 100 µM
COLO 205 colon
  GI50: 21.8 µM
  TGI: > 100 µM
DU-145 prostate
  GI50: 24.8 µM
  TGI: > 100 µM
EKVX NSCLC
  GI50: 6.15 µM
  TGI: > 100 µM
HCC-2998 colon
  GI50: 20.1 µM
  TGI: > 100 µM
HCT-116 colon
  GI50: 8.63 µM
  TGI: > 100 µM
HCT-15 colon
  GI50: 11.1 µM
  TGI: > 100 µM
HL-60(TB) leukemia
  GI50: 0.457 µM
  TGI: > 100 µM
HOP-62 NSCLC
  GI50: 34.8 µM
  TGI: > 100 µM
HOP-92 NSCLC
  GI50: 11.4 µM
  TGI: > 100 µM
HS 578T breast
  GI50: 11.1 µM
  TGI: > 100 µM
HT29 colon
  GI50: 14.4 µM
  TGI: > 100 µM
IGROV1 ovarian
  GI50: 2.02 µM
  TGI: 4.56 µM
K-562 leukemia
  GI50: 3.43 µM
  TGI: > 100 µM
KM12 colon
  GI50: 1.01 µM
  TGI: > 100 µM
LOX IMVI melanoma
  GI50: 34.8 µM
  TGI: > 100 µM
M14 melanoma
  GI50: 30.7 µM
  TGI: > 100 µM
MALME-3M melanoma
  GI50: 7.25 µM
  TGI: 54.7 µM
MCF7 breast
  GI50: 5.53 µM
  TGI: > 100 µM
MDA-MB-231 breast
  GI50: 27.6 µM
  TGI: > 100 µM
MDA-MB-435
  GI50: 35.5 µM
  TGI: > 100 µM
MOLT-4 leukemia
  GI50: 3.66 µM
  TGI: > 100 µM
NCI-H226 lung
  GI50: 30 µM
  TGI: > 100 µM
NCI-H23 lung
  GI50: 14.9 µM
  TGI: > 100 µM
NCI-H460 lung
  GI50: 24.3 µM
  TGI: > 100 µM
NCI-H522 lung
  GI50: 3.68 µM
  TGI: 65.6 µM
NCI/ADR-RES ovarian
  GI50: 17.1 µM
  TGI: > 100 µM
OVCAR-3 ovarian
  GI50: 2.29 µM
  TGI: 6.78 µM
OVCAR-4 ovarian
  GI50: 3.18 µM
  TGI: > 100 µM
OVCAR-5 ovarian
  GI50: > 100 µM
  TGI: > 100 µM
OVCAR-8 ovarian
  GI50: 6.27 µM
  TGI: > 100 µM
PC-3 prostate
  GI50: 0.472 µM
  TGI: 4.45 µM
RPMI-8226 leukemia
  GI50: 0.592 µM
  TGI: 3.33 µM
RXF 393 renal
  GI50: 1.8 µM
  TGI: 4.74 µM
SF-268 CNS
  GI50: 3.37 µM
  TGI: > 100 µM
SF-295 CNS
  GI50: 7.97 µM
  TGI: > 100 µM
SF-539 CNS
  GI50: 2.69 µM
  TGI: 9.13 µM
SK-MEL-2 melanoma
  GI50: > 100 µM
  TGI: > 100 µM
SK-MEL-28 melanoma
  GI50: 41.8 µM
  TGI: > 100 µM
SK-MEL-5 melanoma
  GI50: 12.1 µM
  TGI: 25.3 µM
SK-OV-3 ovarian
  GI50: 46.8 µM
  TGI: > 100 µM
SN12C renal
  GI50: 6.44 µM
  TGI: > 100 µM
SNB-19 CNS
  GI50: 21.4 µM
  TGI: > 100 µM
SR leukemia
  GI50: 3.72 µM
  TGI: 80.1 µM
SW-620 colon
  GI50: 10.7 µM
  TGI: > 100 µM
T-47D breast
  GI50: 4.78 µM
  TGI: > 100 µM
TK-10 renal
  GI50: 27.5 µM
  TGI: > 100 µM
U251 CNS
  GI50: 3.5 µM
  TGI: > 100 µM
UACC-257 melanoma
  GI50: 21.9 µM
  TGI: > 100 µM
UACC-62 melanoma
  GI50: 21.4 µM
  TGI: > 100 µM
UO-31 renal
  GI50: 1.4 µM
  TGI: 2.72 µM

From PubChem BioAssay (NCI)
